Assay results as given in patent US6767561B2, “DNA polymerase inhibitors, mikanolide and dihydromikanolide” (Societe de Conseils de Recherches et d'Applications …, priority 1999, dated 2004).

How the values were obtained:
[1] = system: Mia-Paca2 human tumor cells; assay: Cell proliferation test (WST1), Mia-PaCa2; type: cell-based; details: Mia-Paca2, 96 hours treatment, read-out: Inhibitory concentration IC50
Description: (§1) The cell lines DU145 (human prostate cancer cells), HT29 (cancer of the colon) and Mia-PaCa2 (human pancreatic cancer cells) were acquired from the American Tissue Culture Collection (Rockville, Md., USA).
(§2) The cells placed in 80 μl of Dulbecco's modified Eagle medium (Gibco-Brl, Cergy-Pontoise, France) completed with 10% foetal calf serum inactivated by heating (Gibco-Brl, Cergy-Pontoise, France), 50000 units/l of penicillin and 50 mg/l streptomycin (Gibco-Brl, Cergy-Pontoise, France), and 2 mM of glutamine (Gibco-Brl, Cergy-Pontoise, France) were seeded on a 96-well plate on day 0. The cells were treated on day 1 for 96 hours with increasing concentrations of each of the compounds to be tested at 50 μg/ml. At the end of this period, quantification of cell proliferation is evaluated by a colorimetric test based on the cleavage of the tetrazolium salt WST1 by mitochondrial dehydrogenases in viable cells leading to the formation of formazan (Boehringer Mannheim, Meylan, France). These tests are carried out in duplicate with 8 determinations per concentration tested. For each compound to be tested, the values included in the linear part of the sigmoid were retained for linear regression analysis and used to estimate the inhibitory concentration IC50. The products are solubilized in dimethylsulphoxide (DMSO) at 10^−2 M and finally used in culture with 0.5% DMSO.

[2] = system: HT29 cells; assay: Incorporation of tritiated thymidine into the DNA of HT29 cells in exponential growth phase (in vitro); type: cell-based, human; details: 1 hour treatment
Description: as §1
Incorporation of Thymidine Labelled With Tritium into DNA Cells in Exponential Growth Phase (in vitro)
HT29 cells are seeded in 96-well plates (culturPlate-96, Packard; 4000 cells per well) with the medium (DMEM, Gibco BRL complemented with 10% foetal calf serum, Gibco BRL). On day 3, the medium is removed and replaced by medium containing the tritiated thymidine (5′-thymidine TRK.328, 1 mCi, 0.6 μCi/wells, Amersham) with or without the products (range of 100 to 0.19 μg/ml per ½ dilutions). The treatments are carried out for 1 hour. The medium is then removed and the cells are washed twice with 200 μl of PBS (Gibco BRL). The lysis solution (SDS 1.25%; EDTA 5 mM) is added and left for 10 minutes at ambient temperature, then 75 μl of scintillating liquid (microscint® 40, Packard) is added. Reading is carried out using Topcount® (Packard). The results are expressed as a percentage of the inhibition of incorporation of the labelled nucleotide in the sample with respect to the control (100−(DPM of the sample/DPM control)*100).

[3] = system: DU145 human tumor cells; assay: Cell proliferation test (WST1), DU145; type: cell-based; details: DU-145, 96 hours treatment, read-out: Inhibitory concentration IC50
Description: as §1, §2

[4] = system: Klenow DNA polymerase enzyme without exonuclease; assay: Incorporation of cytosine labelled with 32P into a DNA in the presence of DNA polymerase in an acellular system; type: biochemical; details: 100 μg/ml, [32P]dCTP incorporation vs control
Description: Incorporation of Cytosine Labelled With ^32P into a DNA in the Presence of DNA Polymerase in an Acellular System
Labelling of the DNA is carried out on a DNA fragment which incorporates nucleotides by way of the activity of the DNA polymerase enzyme. From these nucleotides, the dCTP is labelled by radioactive phosphorus (^32P).
Plasmidic DNA (pc DNA 3, invitrogen, Netherlands) is diluted to a concentration of 2 ng in 45 μl of TE solution (10 MM Tris-HCl; pH 8.0; 1 mM EDTA) then denatured by heating at 100° C. for 10 minutes before being replaced directly in ice. The denatured DNA is placed in the tube which contains the buffer solution of dATP, dGTP, dTTP, the Klenow DNA polymerase enzyme without exonuclease and the random primers (Rediprime II random prime labelling system, RPN 1633, RPN 1634, Amersham pharmacia biotech). 2 μl of Redivue [^32P]dCTP ([…] 5′(α-^32P), specific activity 250 μCi, Amersham), is added to start the reaction. The reaction is carried out in the presence or absence of the compound to be tested for 10 minutes at 37° C. or 1 hour at ambient temperature. […] 10 μl is counted into 5 ml of scintillor (Instagel® plus and Packard scintillation counter). The results are expressed as a percentage of the inhibition of incorporation of the labelled nucleotide in the sample with respect to the control (100−(DPM of the sample/DPM control)*100).

| SMILES | IC50 [1] | Remaining thymidine incorporation (dpm sample/dpm control) ([2]; 25 μg/ml) | Remaining thymidine incorporation (dpm sample/dpm control) ([2]; 50 μg/ml) | Remaining thymidine incorporation (dpm sample/dpm control) ([2]; 100 μg/ml) | IC50 [3] | Inhibition of incorporation (%) [4] |
| --- | --- | --- | --- | --- | --- | --- |
| C=C1C(=O)O[C@H]2C[C@]3(C)O[C@H]3[C@@H]3O[C@@H]3C3=C[C@@H](OC3=O)[C@H]12 [Mikanolide, mikanolide] | 3 µM | 1.04 | 0.61 | 0.53 | 15 µM | 79.6 (n = 3; standard deviation σ = 11.0) % |
| C[C@H]1C(=O)O[C@H]2C[C@]3(C)O[C@H]3[C@@H]3O[C@@H]3C3=C[C@@H](OC3=O)[C@@H]21 [Dihydromikanolide, dihydromikanolide] | – | 0.58 | 0.29 | 0.19 | – | 73 (n = 5; standard deviation σ = 7) % |
